Data: US6184217A (Cephalon, Inc., priority 1997, dated 2001)
pIC50: −log10 of the molar value.

Tests used:
TNF-α = test: LPS-induced TNF-α in the serum of mice; assay type: in vivo, C57BL mice; conditions: 30 mg/kg ip 2 h before LPS
Experimental: Sixty female C57BL mice (4-6 weeks old) were divided into six groups, each with 10 animals. Three groups (1,3,5) received vehicle only (PBS containing 0.1% TEA (tetraethyl ammonium hydrochloride)), 200 μl/mouse via intraperitoneal (ip) administration. The other three groups (2,4,6) received Compound A (30 mg/kg in 200 μl, ip) of vehicle (PBS containing 10% of the ethyl ester of 12-hydroxystearic acid; solutol). Two hours later, the animals received by ip administration, 0.1 mg/kg of LPS (groups 1 & 2), 0.5 mg/kg of LPS (groups 3 & 4), and 1.0 mg/kg of LPS (groups 5 % 6). Two hours after LPS administration, all of the animals were sacrificed, and plasma samples were obtained and assayed for their […] and IL-1β content. Assays were carried out as described in Example 8.
The numbers in are the group numbers as described above. N indicates the number of animals from which plasma measurements where made. ND=not done.

[1] = test system: cholinergic neurons, striatal neurons, and sensory neurons; conditions: cited from earlier work
[2] = test system: striatal tyrosine hydroxylase (dopaminergic neurons); test: Striatal tyrosine hydroxylase activity in low-dose MPTP-treated mice; assay type: in vivo, C57 black mice; conditions: MPTP 20 mg/kg, 7 days
Experimental: Experiments were conducted using Compound A in MPTP-lesioned dopaminergic neurons in mice (MPTP mouse model). A single s.c. dose of MPTP (20 mg/kg) provided to C57 black mice produced approximately 60% loss of striatal tyrosine hydroxylase activity. Administration of Compound A, at daily doses ranging from 0.01 to 10 mg/kg (s.c.), to such MPTP-treated mice reduced the loss of striatal tyrosine hydroxylase activity.
Mice were treated with MPTP (20 mg/kg; s.c.) 4-6 hours after the first Compound A injection. Compound A was then injected every day until the end of the experiment, which was 7 days in duration. Striata were assessed for tyrosine hydroxylase enzyme activity. Asterisk indicates statistically significant difference (p<0.05) from MPTP-Vehicle treated animals.

[3] = test system: IL-1β production (THP-1 cells); test: Inhibition of LPS-induced IL-1β production in THP-1 cells; assay type: cell-based; conditions: Homo sapiens, LPS 2 ug/ml
Experimental: Stock solutions consisting of 4 mM Compound A, in 100% DMSO, were stored at 4° C. Cell culture medium RPMI 1640 (Media Tech, Herndon, Va.) and fetal bovine serum (Hyclone, Logan, Utah) comprised the test medium. Lipopolysaccharide (LPS) (Sigma, St. Louis, Mo.) from E. coli serotype 0.111:B4, extracted with trichloroacetic acid, was used. Stock solutions of LPS were prepared and stored at 4° C. in phosphate-buffered saline (PBS). ELISA kits for assaying tumor necrosis factor alpha (TNF-α) and IL-1β were purchased from Boehringer-Mannheim, (Indianapolis, Ind.) and were used according to the manufacturer's instructions. THP-1 cells, a human monocyte-derived cell line, was obtained from the American Type Culture Collection (ATCC TIB 202). Cells were grown in RPMI 1640 containing 10% fetal bovine serum (medium) in a humidified atmosphere of 5% CO2 :95% air at 37° C. Experiments were performed in 24 well culture plates (Nunc) with 5×10^5 THP-1 cells in 1 ml of medium. Cells were incubated with LPS at 2 ug/ml to induce TNF-α. After a 3-hr incubation period, the cells and medium were centrifuged at 1,000×g for 5 min, and the resulting supernatant fluid was either assayed immediately for TNF-α or stored at -70° C. and assayed later. Media samples were measured for content of TNF-α and IL-1β by Elisa assays. […]

monoamine oxidase-A = monoamine oxidase-A (Homo sapiens, UniProt P21397); test: Monoamine oxidase-A inhibition in vitro; assay type: biochemical; conditions: FIG. 1
monoamine oxidase-A, sequence (P21397 whole entry): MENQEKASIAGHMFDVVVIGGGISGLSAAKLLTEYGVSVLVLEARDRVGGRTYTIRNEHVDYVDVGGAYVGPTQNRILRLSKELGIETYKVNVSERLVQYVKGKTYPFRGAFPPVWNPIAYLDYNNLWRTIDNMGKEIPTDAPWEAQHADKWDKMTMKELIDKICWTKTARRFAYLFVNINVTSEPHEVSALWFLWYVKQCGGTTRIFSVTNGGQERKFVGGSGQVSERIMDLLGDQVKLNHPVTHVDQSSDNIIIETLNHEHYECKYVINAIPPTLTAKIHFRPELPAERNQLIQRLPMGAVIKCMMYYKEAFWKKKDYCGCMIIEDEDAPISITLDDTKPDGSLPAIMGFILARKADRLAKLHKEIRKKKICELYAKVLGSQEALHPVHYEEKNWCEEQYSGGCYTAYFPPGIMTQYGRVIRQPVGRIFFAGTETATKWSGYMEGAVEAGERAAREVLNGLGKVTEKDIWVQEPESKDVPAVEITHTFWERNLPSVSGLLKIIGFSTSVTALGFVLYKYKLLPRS

[4] = test system: acrylamide-induced peripheral neuropathy; test: Acrylamide-induced peripheral neuropathy, landing foot spread; assay type: in vivo, Sprague-Dawley rats; conditions: 0.3 mg/kg/day s.c.; acrylamide 50 mg/kg IP three times/week for three weeks (FIG. 5)
From the text: Acrylamide produces a "dying back" central-peripheral distal neuropathy in humans and animals. The lesion is a mixed sensory/motor neuropathy characterized by weakness, tremor and ataxia in humans. In animals, acrylamide produces changes in behavior (sensory, motor and proprioceptive), histopathology, electrophysiology and weight loss. In the periphery, large diameter, long axon, Ab fibers are preferentially affected by acrylamide. In rats, acrylamide administration produces an axonopathy as measured by increased landing foot spread (LFS), a measure of proprioception.
It differs from other chemically-induced models (such as chemotherapeutic models) in that the duration is relatively short (3 weeks) and the animals are in relatively good health.
Male Sprague-Dawley rats weighing 250 grams at the start of the experiment were used. Acrylamide (50 mg/kg, IP) was administered three times/week for three weeks. The animals were dropped from a height of 30 cm and the distance between the hindfeet was recorded (Edwards, P. M. and Parker, V. H. (1977) "A simple, sensitive, and objective method for early assessment of acrylamide neuropathy in rats." Toxicol. Appl Pharmacol, 40:589-591). Compound A (0.1, 0.3 or 1.0 mg/kg, s.c. in 5% solutol) was administered once daily for the duration of the experiment.

protein kinase C = test: Protein kinase C inhibition in vitro; assay type: biochemical

CCSCc1ccc2c(c1)c1c3c(c4c5cc(CSCC)ccc5n5c4c1n2C1CC(O)(C(=O)OC)C5(C)O1)CNC3=O (stereo not shown) [Compound A]
TNF-α (TNF-α; LPS dose 0.1 ip, vehicle 6129 ± 676, N = 10): 2714 ± 449 pg/mL
TNF-α (TNF-α; LPS dose 0.5 ip, vehicle 7141 ± 1113, N = 7): 3766 ± 375 pg/mL
TNF-α (TNF-α; LPS dose 1.0 ip, vehicle 3745 ± 610, N = 9): 2399 ± 1399 pg/mL
function of cholinergic neurons, striatal neurons, and sensory neurons [1]: enhance the function of cholinergic neurons, striatal neurons, and sensory neurons
% of Unlesioned Control ([2]; 0.01 mg/kg s.c. daily): 41 ± 5.3%
Striatal TH Activity (± SEM) ([2]; 0.01 mg/kg s.c. daily): 7.76 ± 1.23
% of Unlesioned Control ([2]; 0.03 mg/kg s.c. daily): 55 ± 3.9%
Striatal TH Activity (± SEM) ([2]; 0.03 mg/kg s.c. daily): 10.48 ± 0.92
% of Unlesioned Control ([2]; 0.10 mg/kg s.c. daily): 60 ± 6.5%
Striatal TH Activity (± SEM) ([2]; 0.10 mg/kg s.c. daily): 11.51 ± 0.80
% of Unlesioned Control ([2]; 0.30 mg/kg s.c. daily): 62 ± 5.0%
Striatal TH Activity (± SEM) ([2]; 0.30 mg/kg s.c. daily): 11.89 ± 1.34
% of Unlesioned Control ([2]; 1.0 mg/kg s.c. daily): 54 ± 7.0%
Striatal TH Activity (± SEM) ([2]; 1.0 mg/kg s.c. daily): 10.39 ± 1.39
% of Unlesioned Control ([2]; 3.0 mg/kg s.c. daily): 51 ± 5.8%
Striatal TH Activity (± SEM) ([2]; 3.0 mg/kg s.c. daily): 9.66 ± 1.10
% of Unlesioned Control ([2]; 10.0 mg/kg s.c. daily): 51 ± 3.7%
Striatal TH Activity (± SEM) ([2]; 10.0 mg/kg s.c. daily): 9.77 ± 0.70
pIC50 [3]: 6.58
monoamine oxidase-A inhibition (monoamine oxidase-A): not a monoamine oxidase-A inhibitor
increase in landing foot spread (LFS) produced by acrylamide [4]: reduced the magnitude of the increase in LFS
protein kinase C inhibition at concentrations inhibiting TNF-α and IL-1β production (protein kinase C; at 139 nM and 261 nM): inactive
fold less active than K-252a against protein kinase C (protein kinase C; compared with K-252a): 570 fold
pIC50 (protein kinase C; in vitro): 4.80
inhibitory activity against PKC (protein kinase C; summary statement): little or no inhibitory activity against PKC
